Experiments:
[1] = test system: PC3 (PC-3) human prostate cancer cells; experiment: In vitro cytotoxicity (% metabolic activity) in PC3 cells; type: cell-based; conditions: n = 3
Experimental: (§1) Nanofiber cytotoxicity was studied in vitro in prostate cancer cells—PC3 and LNCaP.
(§2) FIG. 8A is a line graph showing the % metabolic activity of PC3 (PC-3) human prostate cancer cells incubated with a range of concentrations (μM) of a vitamin C solution for 48 hours (“Vit C 48 h”, black square) or of stabilized vitamin C-derived particles for 24 hours or 48 hours (“Vit C particles 24 h” (grey square) and “Vit C particles 48 h” (triangle), respectively). FIG. 8B is a line graph showing the % metabolic activity of LNCaP androgen-sensitive human prostate adenocarcinoma cells incubated with Vit C for 48 hours (black squares), Vit C particles for 24 hours (grey squares), and Vit C particles for 48 hours (triangles).
(§3) FIGS. 9A and 9B are line graphs showing the % metabolic activity of PC3 cells (FIG. 9A) and the % metabolic activity of LNCaP cells (FIG. 9B) when incubated with a range of concentrations (μM) of stabilized vitamin C-derived particles (“Vit C particles”, grey squares), of free docetaxel (“free DTX”, diamonds), or of stabilized vitamin C-derived particles encapsulating docetaxel (“DTX loaded Vit C particles”, triangles).

[2] = test system: LNCaP androgen-sensitive human prostate adenocarcinoma cells; experiment: In vitro cytotoxicity (% metabolic activity) in LNCaP cells; type: cell-based; conditions: n = 3
Experimental: as §1, §2, §3

`CC(=O)O[C@@]12CO[C@@H]1C[C@H](O)[C@@]1(C)C(=O)[C@H](O)C3=C(C)[C@@H](OC(=O)[C@H](O)[C@@H](NC(=O)OC(C)(C)C)c4ccccc4)C[C@@](O)([C@@H](OC(=O)c4ccccc4)[C@H]21)C3(C)C` [Free DTX, docetaxel] showed an IC50 [1] of 620 nM and an IC50 [2] of 3600 nM.

Reference: patent publication US10300023B1, “Stabilized assembled nanostructures for delivery of encapsulated agents” (The Brigham and Women's Hospital, Inc., priority 2015, dated 2019)
